Type in all cases: cell-based
Assay [1] has as its target T1, protein kinases (human kinome) (Homo sapiens, UniProt Q4G0N4).
T1 sequence (Q4G0N4 63-442): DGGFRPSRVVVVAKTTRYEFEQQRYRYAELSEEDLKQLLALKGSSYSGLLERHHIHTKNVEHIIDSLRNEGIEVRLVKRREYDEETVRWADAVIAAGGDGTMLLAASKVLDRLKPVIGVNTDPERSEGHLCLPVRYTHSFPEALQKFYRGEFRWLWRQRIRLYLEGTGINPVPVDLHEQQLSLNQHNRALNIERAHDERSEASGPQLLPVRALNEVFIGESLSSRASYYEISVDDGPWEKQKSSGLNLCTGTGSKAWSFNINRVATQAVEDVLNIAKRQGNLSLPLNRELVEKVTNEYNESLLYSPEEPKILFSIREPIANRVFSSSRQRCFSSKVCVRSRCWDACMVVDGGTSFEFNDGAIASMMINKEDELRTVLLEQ
Particulars: Accession Q4GON4, direction down.

The target in assay [2] is T2, protein kinases (human kinome) (Homo sapiens, UniProt Q969Z0).
T2 sequence (Q969Z0 108-631): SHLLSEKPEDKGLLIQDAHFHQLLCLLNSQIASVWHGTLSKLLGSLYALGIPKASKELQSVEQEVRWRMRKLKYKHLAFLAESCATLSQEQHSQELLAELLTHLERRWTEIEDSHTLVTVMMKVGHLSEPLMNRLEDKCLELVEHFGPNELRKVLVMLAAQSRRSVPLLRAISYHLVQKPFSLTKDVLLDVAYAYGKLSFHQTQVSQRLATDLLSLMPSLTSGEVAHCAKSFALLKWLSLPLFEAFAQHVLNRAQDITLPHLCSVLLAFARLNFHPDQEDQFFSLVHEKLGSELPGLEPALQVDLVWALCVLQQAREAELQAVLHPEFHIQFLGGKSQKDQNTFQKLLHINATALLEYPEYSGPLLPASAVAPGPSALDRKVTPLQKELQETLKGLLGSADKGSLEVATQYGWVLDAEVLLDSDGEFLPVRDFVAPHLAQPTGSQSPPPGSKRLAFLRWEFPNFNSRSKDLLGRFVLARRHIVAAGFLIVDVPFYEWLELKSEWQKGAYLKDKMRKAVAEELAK
Particulars: Accession Q969Z0-1, direction down.

For assay [3], the target named is protein kinases (human kinome) (Homo sapiens, UniProt Q15119). The conditions noted are these: for logFC PDK2: Accession Q15119-1.
The target in assay [4] is protein kinases (human kinome) (Homo sapiens, UniProt Q8NI60).
protein kinases (human kinome) (Homo sapiens, UniProt Q8NI60), sequence (Q8NI60 163-647): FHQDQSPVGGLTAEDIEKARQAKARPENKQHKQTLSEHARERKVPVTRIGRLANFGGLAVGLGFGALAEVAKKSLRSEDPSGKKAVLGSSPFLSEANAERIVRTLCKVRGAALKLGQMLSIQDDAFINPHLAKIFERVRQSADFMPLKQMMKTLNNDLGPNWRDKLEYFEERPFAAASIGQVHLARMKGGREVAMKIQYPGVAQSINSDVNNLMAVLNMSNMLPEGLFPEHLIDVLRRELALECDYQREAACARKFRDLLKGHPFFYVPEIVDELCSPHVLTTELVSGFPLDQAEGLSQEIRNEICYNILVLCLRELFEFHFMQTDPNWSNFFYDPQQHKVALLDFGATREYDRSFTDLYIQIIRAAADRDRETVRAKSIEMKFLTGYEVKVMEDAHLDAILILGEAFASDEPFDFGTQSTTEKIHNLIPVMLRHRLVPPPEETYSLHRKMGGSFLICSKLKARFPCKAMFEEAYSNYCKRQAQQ

Read-outs that look alike come from different tables or passages of the source.

In the case of `CC(C)(C)c1nc(-c2cccc(NS(=O)(=O)c3c(F)cccc3F)c2F)c(-c2ccnc(NCCOCCNC(=O)CCOCCOCCNc3cccc4c3CN(C3CCC(=O)NC3=O)C4=O)n2)s1` (centres unmarked) [DD.03.107], the “logFC NADK2” value in assay [1] (experiment wp147, 1 uM) is recorded as −0.5404; in assay [1] (experiment wp147, 2 uM), −0.4442; in assay [1] (experiment wp147, 4 uM) it was −0.9504. The “logFC TBRG4” value in assay [2] (experiment wp147, 1 uM) is −0.6245; in assay [2] (experiment wp147, 2 uM), −0.6284; in assay [2] (experiment wp147, 4 uM) it was −1.105. Besides, the “logFC PDK2” value in assay [3] (experiment wp137) is −0.3383; in assay [3] (experiment wp147, 1 uM), −0.4963; in assay [3] (experiment wp147, 2 uM), −0.5351; in assay [3] (experiment wp147, 4 uM), −0.9269. In addition, the “logFC PDK2 (Q15119-1)” value in assay [3] (experiment wp137) is −0.3383; in assay [3] (experiment wp147, 1 uM) it was −0.4963; in assay [3] (experiment wp147, 2 uM), −0.5351; in assay [3] (experiment wp147, 4 uM), −0.9269. The “logFC COQ8A (Q8N160-1)” value in assay [4] (experiment wp147, 1 uM) is reported as −0.6678; in assay [4] (experiment wp147, 2 uM) it was −0.6288; in assay [4] (experiment wp147, 4 uM), −1.121. Besides, the “logFC COQ8A (Q8NI60-1)” value in assay [4] (experiment wp147, 1 uM) is −0.6678; in assay [4] (experiment wp147, 2 uM) it was −0.6288; in assay [4] (experiment wp147, 4 uM), −1.121.

The record behind these values is patent US20240269139A1, “COMPOUNDS FOR TARGETED PROTEIN DEGRADATION OF KINASES” (DANA-FARBER CANCER INSTITUTE, INC., priority 2020, published 2024).
